US8048879B2, “Substituted 4,5,6,7-tetrahydro-isoxazolo[4,5-c]pyridine compounds and use thereof for producing medicaments” (Gruenenthal GmbH, priority 2005, dated 2011)

These molecules were tested against T1, 5-HT transporter (Rattus norvegicus, UniProt P31652) (assay: 5-HT uptake inhibition, synaptosomes from rat brain (medulla and pons)). Conditions: not given.
T1 construct: from tissue; host or cells: rat brain (medulla and pons), synaptosomes, P2 fraction
Assay type: biochemical
Text: b) Method for Determining Noradrenalin and 5-HT Uptake Inhibition:
Synaptosomes from rat brain regions are freshly isolated for in vitro studies, as described in the publication “The isolation of nerve endings from brain” by E. G. Gray and V. P. Whittaker, J. Anatomy 96, pages 79-88, 1962. The corresponding literature description is hereby introduced as a reference and is deemed to be part of the disclosure.
The tissue (hypothalamus for the determination of noradrenalin uptake inhibition and medulla and pons for the determination of 5-HT uptake inhibition) is homogenised in ice-cooled 0.32 M sucrose (100 mg of tissue/1 mL) in a glass homogeniser with Teflon pestle using five complete up and down strokes at 840 revolutions/minute.
The homogenate is centrifuged at 4° C. for 10 minutes at 1000 g. After subsequent centrifugation at 17000 g for 55 minutes, the synaptosomes (P2 fraction) are obtained, which are resuspended in 0.32 M […] (0.5 mL/100 mg of original weight).
The particular uptake is measured in a 96-well microtitre plate. The volume is 250 μL and the incubation proceeds at room temperature (approx. 20-25° C.) under an O2 atmosphere.
The incubation time is 7.5 minutes for [^3H]-NA and 5 minutes for [^3H]-5-HT. The 96 samples are then filtered through a Unifilter GF/B® microtitre plate (Packard) and washed with 200 mL of incubated buffer using a “Brabdel MPXRI-96T Cell-Harvester”. The Unifilter GF/B plate is dried for 1 hour at 55° C. The plate is then sealed with a Back Seal® (Packard) and 35 μL of scintillation fluid are added per well (Ultima Gold®, Packard). After sealing with a top Seal® (Packard) and establishing an equilibrium (around 5 hours), radioactivity is determined in a “Trilux 1450 Microbeta” (Wallac).
The quantity of protein used in the above determination corresponds to the values known from the literature, as for example described in “Protein measurement with the folin phenol reagent”, Lowry et al., J. Biol. Chem., 193, 265-275, 1951.
A detailed description of the method may additionally be found in the literature, for example in M. Ch. Frink, H.-H. Hennies, W. Engelberger, M. Haurand and B. Wilffert (1996) Arzneim.-Forsch./Drug Res. 46 (III), 11, 1029-1036.
The following characteristics were determined for the NA or 5-HT transporter: […]

T1 sequence (P31652 whole entry): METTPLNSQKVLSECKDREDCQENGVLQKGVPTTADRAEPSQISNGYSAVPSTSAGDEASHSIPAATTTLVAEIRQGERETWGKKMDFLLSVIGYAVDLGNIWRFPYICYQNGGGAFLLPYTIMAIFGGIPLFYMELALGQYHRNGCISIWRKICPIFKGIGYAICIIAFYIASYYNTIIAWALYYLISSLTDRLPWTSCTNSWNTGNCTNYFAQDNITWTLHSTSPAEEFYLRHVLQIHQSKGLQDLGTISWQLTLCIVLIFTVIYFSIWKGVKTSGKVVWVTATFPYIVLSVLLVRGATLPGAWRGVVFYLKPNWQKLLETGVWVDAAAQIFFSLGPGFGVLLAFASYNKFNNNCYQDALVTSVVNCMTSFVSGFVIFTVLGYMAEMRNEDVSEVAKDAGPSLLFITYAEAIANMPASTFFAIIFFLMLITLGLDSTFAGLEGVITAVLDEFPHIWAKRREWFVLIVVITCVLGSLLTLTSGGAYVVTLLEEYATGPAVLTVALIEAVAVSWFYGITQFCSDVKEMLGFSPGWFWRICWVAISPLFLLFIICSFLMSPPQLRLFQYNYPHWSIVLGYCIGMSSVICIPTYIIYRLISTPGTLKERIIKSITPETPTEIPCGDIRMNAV

SMILES | inhibition at 10 µM
COc1ccc(C(C)NC(=O)c2noc3c2CN(S(=O)(=O)c2ccc(OC)cc2)CC3)cc1 (stereo not drawn) [Example 84, 5-(4-methoxy-benzenesulfonyl)-4,5,6,7-tetrahydro-isoxazolo[4,5-c]pyridine-3-carboxylic acid [1-(4-methoxyphenyl)-ethyl] amide] | 69%
CCOC(=O)C(C)NC(=O)c1noc2c1CN(S(=O)(=O)c1cccs1)CC2 (stereo not drawn) [Example 85, 2-{[5-(thiophene-2-sulfonyl)-4,5,6,7-tetrahydro-isoxazolo[4,5-c]pyridine-3-carbonyl]-amino}-propionic acid ethyl ester] | 67%
C=CCOc1ccc(CN(Cc2ccco2)C(=O)c2noc3c2CN(S(=O)(=O)c2cccc(C(F)(F)F)c2)CC3)cc1 [Example 87, 5-(3-trifluoromethyl-benzenesulfonyl)-4,5,6,7-tetrahydro-isoxazolo[4,5-c]pyridine-3-carboxylic acid (4-allyloxy-benzyl)-furan-2-ylmethyl amide] | 66%
COc1ccc(S(=O)(=O)N2CCc3onc(C(=O)NC(CCC(=O)OC(C)(C)C)C(N)=O)c3C2)cc1 (stereo not drawn) [Example 88, 4-carbamoyl-4-{[5-(4-methoxy-benzenesulfonyl)-4,5,6,7-tetrahydro-isoxazolo[4,5-c]pyridine-3-carbonyl]-amino}-butanoic acid tert-butyl ester] | 62%
CSc1ccc(CN(Cc2ccco2)C(=O)c2noc3c2CN(S(=O)(=O)N(C)C)CC3)cc1 [Example 89, 5-dimethylsulfamoyl-4,5,6,7-tetrahydro-isoxazolo[4,5-c]pyridine-3-carboxylic acid furan-2-ylmethyl-(4-methylsulfanyl-benzyl) amide] | 64%
Cc1cc(C(=O)N2CCc3onc(C(=O)NCCN4CCOCC4)c3C2)ccc1Br [Example 90, 5-(4-bromo-3-methyl-benzoyl)-4,5,6,7-tetrahydro-isoxazolo[4,5-c]pyridine-3-carboxylic acid (2-morpholin-4-yl-ethyl) amide] | 65%
Cc1ccc(S(=O)(=O)N2CCc3onc(C(=O)NC4CCN(Cc5c(Cl)cccc5Cl)C4)c3C2)cc1 (stereo not drawn) [Example 91, 5-(toluene-4-sulfonyl)-4,5,6,7-tetrahydro-isoxazolo[4,5-c]pyridine-3-carboxylic acid [1-(2,6-dichloro-benzyl)-pyrrolidin-3-yl] amide] | 67%
O=C(NCCc1ccc(Cl)c(Cl)c1)c1noc2c1CN(S(=O)(=O)c1ccccc1)CC2 [Example 92, 5-benzenesulfonyl-4,5,6,7-tetrahydro-isoxazolo[4,5-c]pyridine-3-carboxylic acid [2-(3,4-dichloro-phenyl)-ethyl] amide] | 61%
CN(C)CCNC(=O)c1noc2c1CN(C(=O)c1cccc(SC(F)F)c1)CC2 [Example 93, 5-(3-difluoromethylsulfanyl-benzoyl)-4,5,6,7-tetrahydro-isoxazolo[4,5-c]pyridine-3-carboxylic acid (2-dimethylamino-ethyl) amide] | 88%
COc1ccc(S(=O)(=O)N2CCc3onc(C(=O)NCc4cccc(OC)c4OC)c3C2)cc1 [Example 95, 5-(4-methoxy-benzenesulfonyl)-4,5,6,7-tetrahydro-isoxazolo[4,5-c]pyridine-3-carboxylic acid 2,3-dimethoxy-benzyl amide] | 68%
CCOC(=O)CCNC(=O)c1noc2c1CN(C(=O)c1ccc(OC)cc1)CC2 [Example 98, 3-{[5-(4-methoxy-benzoyl)-4,5,6,7-tetrahydro-isoxazolo[4,5-c]pyridine-3-carbonyl]-amino}-propionic acid ethyl ester] | 75%
CN(C)CCNC(=O)c1noc2c1CN(C(=O)CCCOc1ccccc1)CC2 [Example 99, 5-(4-phenoxy-butyryl)-4,5,6,7-tetrahydro-isoxazolo[4,5-c]pyridine-3-carboxylic acid (2-dimethylamino-ethyl) amide] | 69%
Cc1cccc2c(CCNC(=O)c3noc4c3CN(S(=O)(=O)c3ccc(OC(F)(F)F)cc3)CC4)c[nH]c12 [Example 100, 5-(4-trifluoromethoxy-benzenesulfonyl)-4,5,6,7-tetrahydro-isoxazolo[4,5-c]pyridine-3-carboxylic acid [2-(7-methyl-1H-indol-3-yl)-ethyl] amide] | 83%
Cc1cc(C(=O)N2CCc3onc(C(=O)NCCN4CCCC4)c3C2)ccc1Br [Example 102, 5-(4-bromo-3-methyl-benzoyl)-4,5,6,7-tetrahydro-isoxazolo[4,5-c]pyridine-3-carboxylic acid (2-pyrrolidin-1-yl-ethyl) amide] | 70%
COc1ccc(OCCNC(=O)c2noc3c2CN(S(=O)(=O)c2ccccc2)CC3)cc1 [Example 106, 5-benzenesulfonyl-4,5,6,7-tetrahydro-isoxazolo[4,5-c]pyridine-3-carboxylic acid [2-(4-methoxy-phenoxy)-ethyl] amide] | 76%
CN(C)S(=O)(=O)N1CCc2onc(C(=O)NCc3ccc(C(F)(F)F)c(F)c3)c2C1 [Example 107, 5-dimethylsulfamoyl-4,5,6,7-tetrahydro-isoxazolo[4,5-c]pyridine-3-carboxylic acid 3-fluoro-4-trifluoromethyl-benzyl amide] | 61%
C#CCNC(=O)c1noc2c1CN(C(=O)c1cccc(C)c1)CC2 [Example 108, 5-(3-methyl-benzoyl)-4,5,6,7-tetrahydro-isoxazolo[4,5-c]pyridine-3-carboxylic acid prop-2-ynyl amide] | 88%
O=C(NCc1ccc(F)cc1F)c1noc2c1CN(S(=O)(=O)c1cc(Cl)ccc1Cl)CC2 [Example 112, 5-(2,5-dichloro-benzenesulfonyl)-4,5,6,7-tetrahydro-isoxazolo[4,5-c]pyridine-3-carboxylic acid 2,4-difluoro-benzyl amide] | 71%
O=C(NCc1ccc(C(F)(F)F)c(F)c1)c1noc2c1CN(S(=O)(=O)c1ccccc1)CC2 [Example 113, 5-benzenesulfonyl-4,5,6,7-tetrahydro-isoxazolo[4,5-c]pyridine-3-carboxylic acid 3-fluoro-4-trifluoromethyl-benzyl amide] | 83%
CCCCOc1ccc(S(=O)(=O)N2CCc3onc(C(=O)NCC(C)C)c3C2)cc1 [Example 114, 5-(4-butoxy-benzenesulfonyl)-4,5,6,7-tetrahydro-isoxazolo[4,5-c]pyridine-3-carboxylic acid isobutyl amide] | 85%
Cc1ccc(C(=O)N2CCc3onc(C(=O)NCCN4CCCC4)c3C2)cc1F [Example 115, 5-(3-fluoro-4-methyl-benzoyl)-4,5,6,7-tetrahydro-isoxazolo[4,5-c]pyridine-3-carboxylic acid (2-pyrrolidin-1-yl-ethyl) amide] | 65%
CC(C)CNC(=O)c1noc2c1CN(C(=O)c1cc(C(F)(F)F)ccc1Cl)CC2 [Example 116, 5-(2-chloro-5-trifluoromethyl-benzoyl)-4,5,6,7-tetrahydro-isoxazolo[4,5-c]pyridine-3-carboxylic acid isobutyl amide] | 77%
CN(C)CCNC(=O)c1noc2c1CN(C(=O)c1cccc(OC(F)(F)F)c1)CC2 [Example 119, 5-(3-trifluoromethoxy-benzoyl)-4,5,6,7-tetrahydro-isoxazolo[4,5-c]pyridine-3-carboxylic acid (2-dimethylamino-ethyl) amide] | 73%
O=C(NCc1ccc(F)cc1)c1noc2c1CN(C(=O)c1ccc3ncccc3c1)CC2 [Example 124, 5-(quinoline-6-carbonyl)-4,5,6,7-tetrahydro-isoxazolo[4,5-c]pyridine-3-carboxylic acid 4-fluorobenzyl amide] | 65%
CC(C)CNC(=O)c1noc2c1CN(C(=O)C(NC(=O)OCc1ccccc1)c1ccccc1)CC2 (stereo not drawn) [Example 126, [2-(3-isobutylcarbamoyl-6,7-dihydro-4H-isoxazolo[4,5-c]pyridin-5-yl)-2-oxo-1-phenyl-ethyl]-carbamic acid benzyl ester] | 80%
O=C(NC(=S)N1CCc2onc(C(=O)NCCN3CCCC3)c2C1)c1ccccc1 [Example 128, 5-benzoylaminocarbothioyl-4,5,6,7-tetrahydro-isoxazolo[4,5-c]pyridine-3-carboxylic acid (2-pyrrolidin-1-yl-ethyl) amide] | 80%

Same assay, conditions: 10 µM

SMILES | 5-HT uptake (rat), 10 μM, % inhibition
O=C(NCCN1CCCC1)c1noc2c1CN(C(=O)COc1cccc(Cl)c1)CC2 [Example 94, 5-[2-(3-chlorophenoxy)-acetyl]-4,5,6,7-tetrahydro-isoxazolo[4,5-c]pyridine-3-carboxylic acid (2-pyrrolidin-1-yl-ethyl) amide] | 94%
